According to patent US6713493B2, “Use of nicergoline in the treatment of spasticity” (Aventis Pharma S.A., priority 1998, dated 2004):

Columns and labels:
[1] = test system: spasticity in amyotrophic lateral sclerosis; settings: riluzole sold as Rilutek for ALS; cited from earlier work
[2] = test system: stiffness (spasticity) in patients suffering from ALS; assay: Descriptive study on 9 ALS patients: stiffness self-assessed on a 100 mm visual analog scale (VAS) before and after nicergoline; type: in vivo, human (patients)
Description: A descriptive study on 9 patients suffering from ALS was carried out. The main criterion defined is the stiffness, measured using a visual analog scale (VAS), of 100 mm, or the individual rates by self-assessment the severity of the stiffness perceived. The patients receive 100 mg/day of riluzole and 15 mg IV of nicergoline on the first day and 30 mg IV on the next 4 days. The duration of infusion was more than 4 hours to avoid any risk of hypotension. The measurement was carried out before and after administration of nicergoline.

## Nc1nc2ccc(OC(F)(F)F)cc2s1 [Riluzole, 2-amino-6-trifluoro-methoxybenzothiazole]
[1]
  Effect on spasticity (in words): no effect on the spasticity

## CO[C@]12C[C@@H](COC(=O)c3cncc(Br)c3)CN(C)[C@@H]1Cc1cn(C)c3cccc2c13 [nicergoline, (8β)-10-methoxy-1,6-dimethylergoline-8-methanol-5-bromonicotinate]
[2]; 9 ALS patients on riluzole 100 mg/day, nicergoline 15 mg IV day 1, 30 mg IV next 4 days, measured 4 days later (from 4 to 8 d), stiffness before administration 67.33±25
  Stiffness (VAS, 100 mm) after administration of nicergoline, mean±standard deviation: 48.11±19 mm
[2]; 9 ALS patients, same regimen, range −8 to +57, comparison at zero difference significant (t=2.809, p (2α)=0.0229)
  Intra-individual difference in stiffness (VAS) before vs after nicergoline, mean±standard deviation: 19.22±20.5 mm
[2]; in particular spasticity during ALS
  Effect on pyramidal spasticity of neurological diseases involving an attack of the pyramidal pathway (in words): reduces the pyramidal spasticity
